Test results published in patent US20130245064A1, “NOVEL NEUROTRYPSIN INHIBITORS” (priority 2010, published 2013).

Columns and labels:
Trypsin = target: T1, Trypsin (Sus scrofa, UniProt P00761); test: Determination of IC50 for various proteases (chromogenic substrate, pNA release at 405 nm): trypsin; format: biochemical; settings: hog trypsin 2 nM, substrate S-2222 0.5 mM; Mean ± SD
T1 construct: purchased Sigma Aldrich
Experimental: (§1) A 6 mM solution of the test compound in DMSO was prepared. In a V-bottom micro plate the 6 mM compound solution was diluted 6 times in DMSO to obtain a concentration row with the following concentrations: 6 mM, 1.8 mM, 540 μM, 162 μM, 48.8 μM, 14.4 μM, and 4 μM. From this DMSO master plate 1:20 dilutions in 10 mM MOPS pH 8.3 were prepared to obtain solutions of 300, 90, 27, 8.1, 2.44, 0.72 and 0.22 μM in MOPS buffer and 5% DMSO.
(§2) 100 μl of this solution were pipetted into a flat bottom 96 well microplate and placed into a Tecan infinite 200 plate reader. Before measurement, 50 μl of protease solution and, subsequently 50 μl substrate solution were added by the machine. The liberation of free para nitroanilide was detected at 405 nm. The protease solution was freshly prepared by diluting to the desired concentration from a stock solution in 60 mM MOPS; 600 mM NaCl; 20 mM CaCl2; 10% DMSO; 0.4% PEG 6000 pH 8.3. The substrate solution was prepared by dissolving the solid substrate in an adequate amount of water to get the desired concentrations. The used protease and substrate solutions are given below:
(§3) All enzymes except trypsin were from human origin (American diagnostic). Trypsin was hog trypsin (Sigma Aldrich). Substrates were purchased from Chromogenix. […]

Thrombin = target: T2, Thrombin (Homo sapiens, UniProt P00734); test: Determination of IC50 for various proteases: thrombin; format: biochemical; settings: thrombin 6 nM, substrate S-2266 0.5 mM; Mean ± SD
T2 construct: purchased American diagnostic
Experimental: as §1, §2, §3

Plasmin = target: T3, Plasmin (Homo sapiens, UniProt P00747); test: Determination of IC50 for various proteases: plasmin; format: biochemical; settings: plasmin 8 nM, substrate S-2288 0.5 mM; Mean ± SD
T3 construct: purchased American diagnostic
Experimental: as §1, §2, §3

tPA (2 chain) = target: T4, tPA (2 chain) (Homo sapiens, UniProt P00750); test: Determination of IC50 for various proteases: tPA; format: biochemical; settings: tPA (2 chain) 40 nM, substrate S-2288 0.5 mM; Mean ± SD
T4 construct: tPA (2 chain); purchased American diagnostic
Experimental: as §1, §2, §3

uPA = target: T5, uPA (Homo sapiens, UniProt P00749); test: Determination of IC50 for various proteases: uPA; format: biochemical; settings: uPA 40 nM, substrate S-2288 0.5 mM; Mean ± SD
T5 construct: purchased American diagnostic
Experimental: as §1, §2, §3

Factor Xa = target: T6, Factor Xa (Homo sapiens, UniProt P00742); test: Determination of IC50 for various proteases: Factor Xa; format: biochemical; settings: Factor Xa 5 nM, substrate S-2288 0.5 mM; Mean ± SD
T6 construct: purchased American diagnostic
Experimental: as §1, §2, §3

[1] = Effect of compound on body weight in mice; format: in vivo, C57/BL6 mice; settings: 25 mg/kg, three subcutaneous injections
Experimental: (§4) Adult (P50) C57/BL6 mice from Charles River were used for the experiments. All animal experiments are performed in accordance with international guidelines for proper conduct of animal experiment under jurisdiction of the Swiss law (Permit number ZH-18/2008). For every mouse in the experiment the well-being during the interventions is documented in a score sheet.
The mice are housed under optimal hygienic conditions (OHB) with controlled air-conditioning and lighting (temperature: 20-24° C., humidity: 55-65%, day/night cycle: 12 h/12 h, lights on 7 a.m.). Individually ventilated cages of type II, L (530 cm^2 floor space) with standard litter are used. A maximum of 6 mice is kept in each cage. Mice are fed with standard rodent chow (Extrudat, KLIBA NAFAG) ad libitum and have free access to drinking water. Animal colony is managed and maintained at BioSupport, Schlieren.
Three adult mice were treated with 2.5 ml/kg of a 10 mg/ml solution of the compound of Example 1 in 100% DMSO. This corresponds to a dose of 25 mg/kg active ingredient. As vehicle control, 3 mice were treated with 2.5 ml/kg of 100% DMSO. Each mouse received three subcutaneous injections. Between dose 1 and dose 2 there were 8 h, between dose 2 and dose 3 16 h. 5 h after the last injection the mice were euthanatized with CO2. […]

[2] = tested on: C-terminal agrin fragment (CAF); test: Analysis of serum CAF levels by western blotting in treated mice; format: in vivo, C57/BL6 mice; settings: mouse serum pools, 25 mg/kg x 3 s.c., 5 h after last injection, western blot normalized to vehicle
Experimental: as §4
Three adult mice were treated with 2.5 ml/kg of a 10 mg/ml solution of the compound of Example 1 in 100% DMSO. This corresponds to a dose of 25 mg/kg active ingredient. As vehicle control, 3 mice were treated with 2.5 ml/kg of 100% DMSO. Each mouse received three subcutaneous injections. Between dose 1 and dose 2 there were 8 h, between dose 2 and dose 3 16 h. 5 h after the last injection the mice were euthanatized with CO2.
Before the first injection the mice were weighted and ˜100 μl of blood was collected from the lateral tail vein. Serum was prepared with centrifugation of blood samples in Microvette 500 Z-Gel tubes (10,000 g, 20° C., 5 min). […]
After staining for CAF the membrane was washed thoroughly and reused for a staining for endogenous mouse antibodies that served as loading control. […] After imaging with a Stella imaging system (Raytest) the intensity of the CAF bands was measured with AIDA picture analysis software (Raytest) and normalized to the loading levels determined from mouse antibody light chains. […]

T4 sequence (P00750 311-562 limits assumed): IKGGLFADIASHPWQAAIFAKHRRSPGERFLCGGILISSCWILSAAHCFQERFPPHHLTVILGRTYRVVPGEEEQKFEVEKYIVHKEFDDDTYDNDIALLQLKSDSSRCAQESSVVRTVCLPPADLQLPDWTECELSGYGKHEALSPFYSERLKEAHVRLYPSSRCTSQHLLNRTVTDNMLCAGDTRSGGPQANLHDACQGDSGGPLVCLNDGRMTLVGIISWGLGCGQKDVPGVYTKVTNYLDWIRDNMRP
T4 sequence (P00750 36-310 partner limits assumed): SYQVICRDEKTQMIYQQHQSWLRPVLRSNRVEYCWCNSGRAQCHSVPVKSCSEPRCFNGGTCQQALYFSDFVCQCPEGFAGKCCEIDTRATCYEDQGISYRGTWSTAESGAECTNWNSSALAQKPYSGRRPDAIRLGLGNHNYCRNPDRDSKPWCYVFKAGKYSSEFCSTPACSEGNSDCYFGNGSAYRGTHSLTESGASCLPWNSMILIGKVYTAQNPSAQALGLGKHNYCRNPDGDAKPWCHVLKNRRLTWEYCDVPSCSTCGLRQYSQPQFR
T1 sequence (P00761 9-231): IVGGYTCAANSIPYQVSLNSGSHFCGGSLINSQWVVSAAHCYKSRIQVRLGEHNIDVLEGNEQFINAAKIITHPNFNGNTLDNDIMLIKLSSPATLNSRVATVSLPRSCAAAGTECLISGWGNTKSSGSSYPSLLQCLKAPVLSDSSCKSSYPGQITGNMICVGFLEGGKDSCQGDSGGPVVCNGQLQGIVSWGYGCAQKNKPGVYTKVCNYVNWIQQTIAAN
T6 sequence (P00742 235-488 limits assumed): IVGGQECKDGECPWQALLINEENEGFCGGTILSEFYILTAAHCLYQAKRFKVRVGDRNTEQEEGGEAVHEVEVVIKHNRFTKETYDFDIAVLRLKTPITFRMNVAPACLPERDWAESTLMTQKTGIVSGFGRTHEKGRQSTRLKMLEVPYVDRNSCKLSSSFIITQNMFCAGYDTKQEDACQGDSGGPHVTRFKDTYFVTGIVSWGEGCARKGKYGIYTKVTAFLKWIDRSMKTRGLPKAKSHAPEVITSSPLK
T6 sequence (P00742 41-179 partner limits assumed): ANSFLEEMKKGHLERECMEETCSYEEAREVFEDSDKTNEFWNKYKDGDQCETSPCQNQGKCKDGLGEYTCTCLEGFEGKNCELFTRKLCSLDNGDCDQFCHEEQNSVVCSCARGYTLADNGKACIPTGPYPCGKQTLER
T3 sequence (P00747 581-810 limits assumed): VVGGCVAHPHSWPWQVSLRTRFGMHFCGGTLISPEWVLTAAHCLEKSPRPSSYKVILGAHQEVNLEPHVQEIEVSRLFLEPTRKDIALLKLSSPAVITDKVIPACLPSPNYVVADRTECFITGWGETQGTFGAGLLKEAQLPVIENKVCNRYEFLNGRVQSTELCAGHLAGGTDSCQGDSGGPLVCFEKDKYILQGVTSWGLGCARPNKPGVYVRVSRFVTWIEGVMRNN
T3 sequence (P00747 97-580 partner limits assumed): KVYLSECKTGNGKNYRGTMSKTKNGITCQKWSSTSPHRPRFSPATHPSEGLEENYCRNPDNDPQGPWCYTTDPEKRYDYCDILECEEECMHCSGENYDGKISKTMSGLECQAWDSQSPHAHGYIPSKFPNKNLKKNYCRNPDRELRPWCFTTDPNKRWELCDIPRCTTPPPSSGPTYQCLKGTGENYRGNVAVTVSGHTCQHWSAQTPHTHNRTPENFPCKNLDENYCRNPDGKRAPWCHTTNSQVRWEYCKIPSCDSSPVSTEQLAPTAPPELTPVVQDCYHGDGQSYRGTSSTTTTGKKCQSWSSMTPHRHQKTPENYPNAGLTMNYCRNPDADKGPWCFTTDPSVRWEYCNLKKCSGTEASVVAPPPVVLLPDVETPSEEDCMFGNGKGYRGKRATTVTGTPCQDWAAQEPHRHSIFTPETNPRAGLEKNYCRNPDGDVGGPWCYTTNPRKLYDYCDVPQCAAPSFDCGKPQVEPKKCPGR

SMILES: O=C(Nc1ccc(C(=O)Nc2ccc(Cl)cc2)c(O)c1)c1ccc(-c2nc3cc(Cl)c(Cl)cc3[nH]2)cc1 [Example 1, N-(4-Chlorophenyl)-4-(4-(5,6-dichloro-1H-benzo[d]imidazol-2-yl)benzamido)-2-hydroxybenzamide]
- IC50 (Trypsin): > 150 µM
- IC50 (Thrombin): > 150 µM
- IC50 (Plasmin): > 150 µM
- IC50 (tPA (2 chain)): > 150 µM
- IC50 (uPA): > 150 µM
- IC50 (Factor Xa): 84.8 ± 46.4 µM
- Weight loss compared to the vehicle control [1]: did not produce any increase in weight loss
- Average CAF levels [2]: 66.6 % of vehicle
